In brackets after ≈: the same amount, converted by molar mass. Values belong to the compound of their own block, whether it stands above or below them.
Assays:
Test in all cases: ≥ marks a high value that may be exact or a test limit, other limits are often not marked, values filed in µg/mL are converted to µM
[1] = tested on: Bacillus megaterium ATCC 10778
[2] = tested on: Bacillus subtilis ATCC 6633
Candida albicans MDM8 = tested on: Candida albicans MDM8
[3] = tested on: Candida tropicalis IOC 4560
[4] = tested on: Enterobacter cloacae beta-12
Escherichia coli SBS 363 = tested on: Escherichia coli SBS 363
Micrococcus luteus A270 = tested on: Micrococcus luteus A270
[5] = tested on: Pseudomonas aeruginosa ATCC 27853
[6] = tested on: Serratia marcescens ATCC 4112
[7] = tested on: Staphylococcus aureus ATCC 29213
[8] = tested on: Acinetobacter baumannii ATCC 19606
[9] = tested on: Candida albicans ATCC 90028
[10] = tested on: Cryptococcus neoformans ATCC 208821
[11] = tested on: Escherichia coli ATCC 25922
[12] = tested on: Klebsiella pneumoniae ATCC 700603
[13] = tested on: Staphylococcus aureus ATCC 43300
[14] = tested on: Staphylococcus aureus SH1000
Escherichia coli W3110 = tested on: Escherichia coli W3110
[15] = tested on: Klebsiella pneumoniae ATCC BAA-1705
Acinetobacter baumannii = tested on: Acinetobacter baumannii
[16] = tested on: Bacillus cereus ATCC 11778
[17] = tested on: Enterococcus faecalis ATCC 29212
Escherichia coli O157:H7 = tested on: Escherichia coli O157:H7
[18] = tested on: Listeria monocytogenes 10403s
[19] = tested on: Salmonella enterica subsp. enterica serovar Typhimurium ATCC 13311
[20] = tested on: Shigella sonnei ATCC 11060
[21] = tested on: Staphylococcus aureus ATCC 25923
[22] = tested on: Staphylococcus epidermidis ATCC 12228
Vibrio cholerae O1 Inaba = tested on: Vibrio cholerae O1 Inaba
Pseudomonas aeruginosa 1 = tested on: Pseudomonas aeruginosa 1
Pseudomonas aeruginosa = tested on: Pseudomonas aeruginosa
[23] = tested on: Candida albicans ATCC 36232
[24] = tested on: Escherichia coli ATCC 2592
[25] = tested on: Micrococcus luteus ATCC 9341
[26] = tested on: Proteus vulgaris ATCC 6380
[27] = tested on: Pseudomonas aeruginosa ATCC 9027
[28] = tested on: Staphylococcus aureus ATCC 6538
Staphylococcus aureus = tested on: Staphylococcus aureus

MIC [1]: 0.8 µM (≈ 1.22 µg/mL) | MIC [2]: 1.6 µM (≈ 2.43 µg/mL) | MIC (Candida albicans MDM8): 3.1 µM (≈ 4.71 µg/mL) | MIC [3]: 1.6 µM (≈ 2.43 µg/mL) | MIC [4]: 6.3 µM (≈ 9.58 µg/mL) | MIC (Escherichia coli SBS 363): 1.6 µM (≈ 2.43 µg/mL) | MIC (Micrococcus luteus A270): 1.6 µM (≈ 2.43 µg/mL) | MIC [5]: 12.5 µM (≈ 19 µg/mL) | MIC [6]: 0.8 µM (≈ 1.22 µg/mL) | MIC [7]: 3.1 µM (≈ 4.71 µg/mL)
SMILES: CC(C)C[C@H](NC(=O)[C@H](C)NC(=O)CNC(=O)[C@H](CC(C)C)NC(=O)[C@@H](N)Cc1ccccc1)C(=O)N[C@@H](Cc1c[nH]c2ccccc12)C(=O)N[C@@H](CC(N)=O)C(=O)N[C@H](C(=O)N[C@@H](C)C(=O)N[C@@H](CCCCN)C(=O)N[C@@H](CCCN=C(N)N)C(=O)N[C@H](C(=O)N[C@@H](Cc1ccccc1)C(N)=O)C(C)C)C(C)C [FLGALWNVAKRVF]

MIC [1]: 3.1 µM (≈ 4.63 µg/mL) | MIC [2]: 0.8 µM (≈ 1.19 µg/mL) | MIC (Candida albicans MDM8): 3.1 µM (≈ 4.63 µg/mL) | MIC [3]: 3.1 µM (≈ 4.63 µg/mL) | MIC [4]: ≥ 50 µM | MIC (Escherichia coli SBS 363): 0.8 µM (≈ 1.19 µg/mL) | MIC (Micrococcus luteus A270): 0.4 µM (≈ 0.597 µg/mL) | MIC [5]: > 50 µM | MIC [6]: 0.4 µM (≈ 0.597 µg/mL) | MIC [7]: 0.8 µM (≈ 1.19 µg/mL)
SMILES: CC(C)C[C@H](NC(=O)[C@H](C)NC(=O)CNC(=O)[C@H](CC(C)C)NC(=O)[C@@H](N)Cc1ccccc1)C(=O)N[C@@H](Cc1c[nH]c2ccccc12)C(=O)N[C@@H](CC(N)=O)C(=O)N[C@H](C(=O)N[C@@H](CC(C)C)C(=O)N[C@@H](CCCCN)C(=O)N[C@@H](CO)C(=O)N[C@H](C(=O)N[C@@H](Cc1ccccc1)C(N)=O)C(C)C)C(C)C [FLGALWNVLKSVF]

MIC [8]: > 20 µM | MIC [9]: 20 µM (≈ 33.1 µg/mL) | MIC [10]: 20 µM (≈ 33.1 µg/mL) | MIC [11]: > 20 µM | MIC [12]: > 20 µM | MIC [5]: > 20 µM | MIC [13]: > 20 µM | MIC [14]: ≥ 33 µM
SMILES: CC(C)C[C@H](NC(=O)CN)C(=O)N[C@@H](Cc1ccccc1)C(=O)N[C@@H](CCCCN)C(=O)N[C@@H](CC(C)C)C(=O)N[C@@H](CC(C)C)C(=O)N[C@@H](CCCCN)C(=O)N[C@@H](CCCCN)C(=O)N[C@@H](CC(C)C)C(=O)N[C@@H](CC(C)C)C(=O)N[C@@H](CCCCN)C(=O)N[C@@H](CC(C)C)C(=O)N[C@@H](CC(C)C)C(=O)N[C@@H](CCCCN)C(N)=O [GLFKLLKKLLKLLK]

MIC (Escherichia coli W3110): 16 µM (≈ 34.2 µg/mL) | MIC [15]: ≥ 128 µM
SMILES: CC[C@H](C)[C@H](N)C(=O)N[C@@H](CC(C)C)C(=O)N[C@@H](Cc1c[nH]c2ccccc12)C(=O)N[C@@H](C)C(=O)N[C@@H](CS)C(=O)N[C@@H](Cc1c[nH]c2ccccc12)C(=O)NCC(=O)N[C@@H](CC(C)C)C(=O)N[C@@H](CCCCN)C(=O)N[C@@H](CC(C)C)C(=O)N[C@@H](CC(C)C)C(=O)N[C@@H](CCCCN)C(=O)N[C@@H](Cc1ccc(O)cc1)C(=O)N[C@@H](CCCCN)C(=O)N[C@@H](CCCCN)C(=O)N[C@H](C(=O)N[C@@H](Cc1ccc(O)cc1)C(=O)O)[C@@H](C)CC [ILWACWGLKLLKYKKIY]

MIC (Acinetobacter baumannii): 2.11 µM (≈ 3.91 µg/mL) | MIC [16]: 4.22 µM (≈ 7.81 µg/mL) | MIC [17]: 67.6 µM (≈ 125 µg/mL) | MIC [11]: 8.45 µM (≈ 15.6 µg/mL) | MIC (Escherichia coli O157:H7): ≥ 33.8 µM | MIC [18]: 1.05 µM (≈ 1.95 µg/mL) | MIC [5]: 2.11 µM (≈ 3.91 µg/mL) | MIC [19]: 1.05 µM (≈ 1.95 µg/mL) | MIC [20]: 2.11 µM (≈ 3.91 µg/mL) | MIC [21]: 8.45 µM (≈ 15.6 µg/mL) | MIC [22]: 2.11 µM (≈ 3.91 µg/mL)
SMILES: CC[C@H](C)[C@H](NC(=O)[C@H](CCCN=C(N)N)NC(=O)[C@H](CCCCN)NC(=O)[C@H](C)NC(=O)[C@@H](NC(=O)[C@@H](N)CCCCN)[C@@H](C)CC)C(=O)N[C@@H](Cc1c[nH]c2ccccc12)C(=O)N[C@@H](CCCCN)C(=O)N[C@H](C(=O)N[C@@H](CC(C)C)C(=O)N[C@@H](CCCN=C(N)N)C(=O)N[C@@H](CCCN=C(N)N)C(=O)N[C@@H](CCCN=C(N)N)C(=O)N[C@@H](CC(C)C)C(N)=O)[C@@H](C)CC [KIAKRIWKILRRRL]
MIC (Vibrio cholerae O1 Inaba): 4.22 µM (≈ 7.81 µg/mL)

MIC (Acinetobacter baumannii): 4.5 µM (≈ 7.81 µg/mL) | MIC [16]: 9 µM (≈ 15.6 µg/mL) | MIC [17]: 144 µM (≈ 250 µg/mL) | MIC [11]: 18 µM (≈ 31.2 µg/mL) | MIC (Escherichia coli O157:H7): 18 µM (≈ 31.2 µg/mL) | MIC [18]: 2.25 µM (≈ 3.91 µg/mL) | MIC (Pseudomonas aeruginosa 1): 2.25 µM (≈ 3.91 µg/mL) | MIC (Pseudomonas aeruginosa): 4.5 µM (≈ 7.81 µg/mL) | MIC [19]: 1.12 µM (≈ 1.95 µg/mL) | MIC [20]: 2.25 µM (≈ 3.91 µg/mL) | MIC [21]: 36 µM (≈ 62.5 µg/mL) | MIC [22]: 2.25 µM (≈ 3.91 µg/mL)
SMILES: CC[C@H](C)[C@H](NC(=O)[C@H](CCCN=C(N)N)NC(=O)[C@H](CCCCN)NC(=O)[C@H](C)NC(=O)[C@@H](NC(=O)[C@@H](N)CCCCN)[C@@H](C)CC)C(=O)N[C@@H](Cc1c[nH]c2ccccc12)C(=O)N[C@@H](CCCCN)C(=O)N[C@H](C(=O)N[C@@H](CC(C)C)C(=O)N[C@@H](CCCN=C(N)N)C(=O)N[C@@H](CCCN=C(N)N)C(=O)N[C@@H](CCCN=C(N)N)C(N)=O)[C@@H](C)CC [KIAKRIWKILRRR]
MIC (Vibrio cholerae O1 Inaba): 18 µM (≈ 31.2 µg/mL)

MIC [23]: 2.41 µM (≈ 3.12 µg/mL) | MIC [24]: 2.41 µM (≈ 3.12 µg/mL) | MIC [25]: 2.41 µM (≈ 3.12 µg/mL) | MIC [26]: ≥ 77.4 µM | MIC [27]: 1.21 µM (≈ 1.56 µg/mL) | MIC [28]: 9.67 µM (≈ 12.5 µg/mL) | MIC (Staphylococcus aureus): 38.7 µM (≈ 50 µg/mL)
SMILES: CC(C)C[C@H](NC(=O)[C@H](CCCCN)NC(=O)[C@H](Cc1ccccc1)NC(=O)[C@H](CC(C)C)NC(=O)[C@H](CC(C)C)NC(=O)[C@H](CCCCN)NC(=O)[C@@H](N)CCCCN)C(=O)N[C@@H](CCCCN)C(=O)N[C@@H](Cc1ccccc1)C(=O)N[C@@H](CCCCN)C(N)=O [KKLLFKLKFK]

MIC [23]: 2.44 µM (≈ 3.12 µg/mL) | MIC [24]: 2.44 µM (≈ 3.12 µg/mL) | MIC [25]: 2.44 µM (≈ 3.12 µg/mL) | MIC [26]: ≥ 78.2 µM | MIC [27]: 1.22 µM (≈ 1.56 µg/mL) | MIC [28]: 9.78 µM (≈ 12.5 µg/mL) | MIC (Staphylococcus aureus): 19.6 µM (≈ 25 µg/mL)
SMILES: CC(C)C[C@H](NC(=O)[C@H](CCCCN)NC(=O)[C@H](Cc1ccccc1)NC(=O)[C@H](CC(C)C)NC(=O)[C@@H](NC(=O)[C@H](CCCCN)NC(=O)[C@@H](N)CCCCN)C(C)C)C(=O)N[C@@H](CCCCN)C(=O)N[C@@H](Cc1ccccc1)C(=O)N[C@@H](CCCCN)C(N)=O [KKVLFKLKFK]

MIC (Escherichia coli W3110): 1 µM (≈ 2.28 µg/mL) | MIC [15]: 2 µM (≈ 4.56 µg/mL)
SMILES: CC[C@H](C)[C@H](NC(=O)[C@H](CCCCN)NC(=O)[C@H](CCCCN)NC(=O)[C@H](Cc1ccc(O)cc1)NC(=O)[C@H](CCCCN)NC(=O)[C@H](CC(C)C)NC(=O)[C@H](CC(C)C)NC(=O)[C@H](CCCCN)NC(=O)[C@H](CC(C)C)NC(=O)CNC(=O)[C@H](Cc1c[nH]c2ccccc12)NC(=O)[C@H](CCCCN)NC(=O)[C@H](C)NC(=O)[C@H](Cc1c[nH]c2ccccc12)NC(=O)[C@H](CCCN=C(N)N)NC(=O)[C@@H](N)Cc1c[nH]c2ccccc12)C(=O)N[C@@H](Cc1ccc(O)cc1)C(=O)O [WRWAKWGLKLLKYKKIY]

Reference: DBAASP
